# Assays:
# [1] = Thermal stability of the product of each step (Table 1); assay type: physicochemical; conditions: product of step (e) of the preferred method; cell text split over r17-r19: No decomposition observed
# Source text: Table 1 provides the reaction enthalpies, the purities (determined by HPLC and expressed as molar percentages) and the stabilities of the products of each step for this preferred method.
# [2] = as described by Bodineau et al. in Hypertension 2008 51, 1318-1325; cited from earlier work
# [3] = Stability of solid forms (neat, hydrates) under ambient conditions; assay type: physicochemical; conditions: ambient conditions: 15-25° C., atmospheric pressure, relative humidity above 50%; hydrate mixtures evolve to the trihydrate within a few days
# Protocol: Any mixture of hydrates of compound I will evolve within a few days towards the trihydrate form in ambient conditions. Ambient conditions as used herein refer to a temperature between 15° C. and 25° C., at atmospheric pressure, and a relative humidity rate above 50%.
Stability: decomposition [1],melting point [°C],Relative stability of solid form [3],SMILES,Anti-hypertensor efficacy [2]
No,78,,"N[C@@H](CCS(=O)(=O)O)CSSC[C@@H](N)CCS(=O)(=O)O [Compound I, (3S,3S′) 4,4′-disulfanediylbis(3-aminobutane 1-sulfonic acid)]",efficient anti-hypertensor agent
,,most stable form,"N[C@@H](CCS(=O)(=O)O)CSSC[C@@H](N)CCS(=O)(=O)O.O.O.O [compound I, (3H2O)]",
